Source: ChEMBL document CHEMBL1201862, “PubChem BioAssay data set” (2004)
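Test compounds were applied to cells in 96-well plates for 48 hours at 5 doses. Here, GI50 denotes the concentration required for 50% inhibition of growth.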 Active and inactive are the calls of the source. No stated cut-off is given here; in the data, active = GI50 up to about 1.1 µM and inactive = higher.

What was measured:
Assay in all cases: growth of human tumour cells (NCI), 48 h
DMS-273 = test system: DMS-273
HOP-18 = test system: HOP-18
MOLT-4 = test system: MOLT-4
Hs-578T = test system: Hs-578T
HCT-116 = test system: HCT-116
SN12C = test system: SN12C
PC-3 = test system: PC-3
U-251 = test system: U-251
K562 = test system: K562
SW-620 = test system: SW-620
SF-295 = test system: SF-295
EKVX = test system: EKVX
SK-MEL-28 = test system: SK-MEL-28
UACC-62 = test system: UACC-62
SK-MEL-2 = test system: SK-MEL-2
HOP-92 = test system: HOP-92
SNB-78 = test system: SNB-78
MDA-MB-231 = test system: MDA-MB-231
ACHN = test system: ACHN
Malme-3M = test system: Malme-3M
IGROV-1 = test system: IGROV-1
HT-29 = test system: HT-29
OVCAR-3 = test system: OVCAR-3
OVCAR-4 = test system: OVCAR-4
KM-20L2 = test system: KM-20L2
M14 = test system: M14
RPMI-8226 = test system: RPMI-8226
M19-MEL = test system: M19-MEL
SF-539 = test system: SF-539
LXFL 529 = test system: LXFL 529
DMS-114 = test system: DMS-114
CCRF-CEM = test system: CCRF-CEM
NCI/ADR-RES = test system: NCI/ADR-RES
SK-MEL-5 = test system: SK-MEL-5
786-0 = test system: 786-0
NCI-H522 = test system: NCI-H522
SK-OV-3 = test system: SK-OV-3
COLO 205 = test system: COLO 205
UO-31 = test system: UO-31
MDA-N = test system: MDA-N
MCF7 = test system: MCF7
XF498 = test system: XF498
OVCAR-5 = test system: OVCAR-5
OVCAR-8 = test system: OVCAR-8
SNB-19 = test system: SNB-19
TK-10 = test system: TK-10
T47D = test system: T47D
NCI-H226 = test system: NCI-H226
SNB-75 = test system: SNB-75
LOX IMVI = test system: LOX IMVI
HOP-62 = test system: HOP-62
KM12 = test system: KM12
HL-60 = test system: HL-60
MDA-MB-435 = test system: MDA-MB-435
NCI-H460 = test system: NCI-H460
A498 = test system: A498
CAKI-1 = test system: CAKI-1
DU-145 = test system: DU-145
SF-268 = test system: SF-268
RXF 393 = test system: RXF 393
RXF 631 = test system: RXF 631
DLD-1 = test system: DLD-1
HCT-15 = test system: HCT-15
A549 = test system: A549
NCI-H23 = test system: NCI-H23
UACC-257 = test system: UACC-257
BT-549 = test system: BT-549
HCC 2998 = test system: HCC 2998
SR = test system: SR

With `COc1cc2c(c(O)c1C)C(=O)C(Cl)=CC2=O` the GI50 (DMS-273) was 19.2 µM (inactive), the GI50 (HOP-18) was 16.5 µM (inactive) and the GI50 (MOLT-4) was 1.88 µM (inactive). For the same compound, the GI50 (Hs-578T) was 30.5 µM (inactive), the GI50 (HCT-116) was 8.28 µM (inactive) and the GI50 (SN12C) was 12.4 µM (inactive). For the same compound, the GI50 (PC-3) was 15.2 µM (inactive), the GI50 (U-251) was 21.4 µM (inactive) and the GI50 (K562) was 2.26 µM (inactive). The GI50 (SW-620) was 3.06 µM (inactive), the GI50 (SF-295) was 18.7 µM (inactive) and the GI50 (EKVX) was 16 µM (inactive). For the same compound, the GI50 (SK-MEL-28) was 18.8 µM (inactive), the GI50 (UACC-62) was 7.23 µM (inactive) and the GI50 (SK-MEL-2) was 15.6 µM (inactive). The GI50 (HOP-92) was 4.71 µM (inactive), the GI50 (SNB-78) was 12.8 µM (inactive) and the GI50 (MDA-MB-231) was 12 µM (inactive). The GI50 (ACHN) was 6.4 µM (inactive), the GI50 (Malme-3M) was 4.21 µM (inactive) and the GI50 (IGROV-1) was 20.4 µM (inactive). For the same compound, the GI50 (HT-29) was 10.8 µM (inactive), the GI50 (OVCAR-3) was 9.91 µM (inactive) and the GI50 (OVCAR-4) was 11.8 µM (inactive). For the same compound, the GI50 (KM-20L2) was 23.1 µM (inactive), the GI50 (M14) was 6.47 µM (inactive) and the GI50 (RPMI-8226) was 6.35 µM (inactive). For the same compound, the GI50 (M19-MEL) was 7.98 µM (inactive), the GI50 (SF-539) was 18.1 µM (inactive) and the GI50 (LXFL 529) was 7.43 µM (inactive). For the same compound, the GI50 (DMS-114) was 16.6 µM (inactive), the GI50 (CCRF-CEM) was 0.918 µM (active) and the GI50 (NCI/ADR-RES) was 22.6 µM (inactive). The GI50 (SK-MEL-5) was 8.69 µM (inactive), the GI50 (786-0) was 11.6 µM (inactive) and the GI50 (NCI-H522) was 2.36 µM (inactive). The GI50 (SK-OV-3) was > 53.1 µM (inactive), the GI50 (COLO 205) was 2.16 µM (inactive) and the GI50 (UO-31) was 10.4 µM (inactive). The GI50 (MDA-N) was 4.07 µM (inactive), the GI50 (MCF7) was 6.85 µM (inactive) and the GI50 (XF498) was 20 µM (inactive). For the same compound, the GI50 (OVCAR-5) was 28.5 µM (inactive), the GI50 (OVCAR-8) was 18.8 µM (inactive) and the GI50 (SNB-19) was 42.3 µM (inactive). The GI50 (TK-10) was 7.41 µM (inactive), the GI50 (T47D) was 2.17 µM (inactive) and the GI50 (NCI-H226) was 15.1 µM (inactive). For the same compound, the GI50 (SNB-75) was 16.4 µM (inactive), the GI50 (LOX IMVI) was 9.53 µM (inactive) and the GI50 (HOP-62) was 43.2 µM (inactive). For the same compound, the GI50 (KM12) was 19.5 µM (inactive), the GI50 (HL-60) was 0.933 µM (active) and the GI50 (MDA-MB-435) was 7.46 µM (inactive). For the same compound, the GI50 (NCI-H460) was 24.9 µM (inactive), the GI50 (A498) was 19 µM (inactive) and the GI50 (CAKI-1) was 5.45 µM (inactive). The GI50 (DU-145) was 6.46 µM (inactive), the GI50 (SF-268) was 17.8 µM (inactive) and the GI50 (RXF 393) was 6.31 µM (inactive). For the same compound, the GI50 (RXF 631) was 12.1 µM (inactive), the GI50 (DLD-1) was 17.4 µM (inactive) and the GI50 (HCT-15) was 11.5 µM. The GI50 (A549) was 22.1 µM (inactive), the GI50 (NCI-H23) was 10.2 µM (inactive) and the GI50 (UACC-257) was 9.95 µM (inactive). For the same compound, the GI50 (BT-549) was 8.3 µM (inactive), the GI50 (HCC 2998) was 22.3 µM (inactive) and the GI50 (SR) was 0.662 µM (active).
For `O=C1CN(C(=O)c2ccccc2)Cc2[nH]c3ccccc3c21`, the GI50 (DMS-273) was > 100 µM (inactive), the GI50 (HOP-18) was > 100 µM (inactive) and the GI50 (MOLT-4) was > 100 µM (inactive). For the same compound, the GI50 (HCT-116) was > 100 µM (inactive), the GI50 (SN12C) was > 100 µM (inactive) and the GI50 (U-251) was > 100 µM (inactive). For the same compound, the GI50 (K562) was > 100 µM (inactive), the GI50 (SW-620) was > 100 µM (inactive) and the GI50 (SF-295) was > 100 µM (inactive). For the same compound, the GI50 (EKVX) was > 100 µM (inactive), the GI50 (SK-MEL-28) was > 100 µM (inactive) and the GI50 (UACC-62) was > 100 µM (inactive). For the same compound, the GI50 (SK-MEL-2) was > 100 µM (inactive), the GI50 (HOP-92) was > 100 µM (inactive) and the GI50 (SNB-78) was > 100 µM (inactive). For the same compound, the GI50 (ACHN) was > 100 µM (inactive), the GI50 (Malme-3M) was > 100 µM (inactive) and the GI50 (IGROV-1) was > 100 µM (inactive). For the same compound, the GI50 (HT-29) was > 100 µM (inactive), the GI50 (OVCAR-3) was > 100 µM (inactive) and the GI50 (OVCAR-4) was > 100 µM (inactive). For the same compound, the GI50 (KM-20L2) was > 100 µM (inactive), the GI50 (M14) was > 100 µM (inactive) and the GI50 (RPMI-8226) was > 100 µM (inactive). For the same compound, the GI50 (M19-MEL) was > 100 µM (inactive), the GI50 (SF-539) was > 100 µM (inactive) and the GI50 (LXFL 529) was > 100 µM (inactive). The GI50 (DMS-114) was > 100 µM (inactive), the GI50 (CCRF-CEM) was > 100 µM (inactive) and the GI50 (SK-MEL-5) was > 100 µM (inactive). The GI50 (786-0) was > 100 µM (inactive), the GI50 (NCI-H522) was > 100 µM (inactive) and the GI50 (SK-OV-3) was > 100 µM (inactive). For the same compound, the GI50 (COLO 205) was > 100 µM (inactive), the GI50 (UO-31) was > 100 µM (inactive) and the GI50 (XF498) was > 100 µM (inactive). For the same compound, the GI50 (OVCAR-5) was > 100 µM (inactive), the GI50 (OVCAR-8) was > 100 µM (inactive) and the GI50 (SNB-19) was > 100 µM (inactive). The GI50 (TK-10) was > 100 µM (inactive), the GI50 (NCI-H226) was > 100 µM (inactive) and the GI50 (SNB-75) was > 100 µM (inactive). For the same compound, the GI50 (LOX IMVI) was > 100 µM (inactive), the GI50 (HOP-62) was > 100 µM (inactive) and the GI50 (KM12) was > 100 µM (inactive). The GI50 (HL-60) was > 100 µM (inactive), the GI50 (NCI-H460) was > 100 µM (inactive) and the GI50 (RXF 393) was > 100 µM (inactive). The GI50 (RXF 631) was > 100 µM (inactive), the GI50 (DLD-1) was > 100 µM (inactive) and the GI50 (HCT-15) was over 100 µM. The GI50 (A549) was > 100 µM (inactive), the GI50 (NCI-H23) was > 100 µM (inactive) and the GI50 (UACC-257) was > 100 µM (inactive). For the same compound, the GI50 (HCC 2998) was > 100 µM (inactive) and the GI50 (SR) was > 100 µM (inactive).
